The source of these data is patent US20230139944A1, “TARGETING ALPHA3BETA1 INTEGRIN FOR TREATMENT OF CANCER AND OTHER DISEASES” (Board of Regents, The University of Texas System, priority 2019, published 2023).

For assay [1], the system named is KPPC mice (ADM and PanIN lesions). The assay is described as follows: FAK inhibitor (FAKi) treatment in vivo, H&E-stained pancreas sections. Set-up: species or system mouse. As to conditions: oral gavage 50 mg/kg twice per day for 7 days. The protocol:
(§1) FIGS. 2A-2H. Type I collagen homotrimers induce persistent proliferation signals via integrins. (A,B) KPPC; Col1^pdxKO cancer cells were transfected with siRNAs of integrins β1 (A), α1, α2, or α3 (B). Cells were then incubated with DMEM medium with 1% FBS for 6 hours before the treatment with col1 homotrimers or heterotrimers (50 μg/mL) for 16 hours. Cells were harvested, lysed, and examined by Western blotting. (C) Expression levels of selected integrin subunits in KPPC; Col1^pdxKO cancer cells. (D) Expression levels of selected integrin subunits human PDAC cell lines (Panc1, BxPC3, MiaPaca2, PSN1, HPAC, CAPAN1) based on RNA-seq data from the Broad Institute Cancer Cell Line Encyclopedia (CCLE) database. RMA (Robust Multi-array Average algorithm) normalization was used and data are the log 2 gene expression signal. (E) Expression profile of integrin α3 (Itga3) among various cell clusters from KPPC tumors, as shown in t-SNE plot using the single cell RNA sequencing analysis. (F) Representative images of integrin α3 IHC staining on KPPC tumor sections. Scale bar: 100 μm. (G) KPPC; Col1^pdxKO cancer cells growing in 6-well plates were cultured with regular medium (DMEM with 10% FBS) to reach 60% confluence. […] Percent area of ADM and PanIN lesions was quantified. * P<0.05. […]

A further assay relates to FAK and PYK2. The assay is described as follows: Col1 homotrimer-induced signaling with FAK inhibitor, Western blotting. The assay is classed as cell-based, mouse. Particulars: VS-4718 1 μM, 16 hours, KPPC; Col1^pdxKO cancer cells, col1 homotrimers 50 μg/mL.
Assay [2] deals with activation of FAK, AKT, and ERK in KPPC; Col1^pdxKO cancer cells. Briefly: Col1 homotrimer-induced pro-survival signaling examined by Western blotting. The assay is classed as cell-based, mouse. As to conditions: VS-4718 1 μM, 16 hours, col1 homotrimers 50 μg/mL. The method, then: FIGS. 1A-1D. Type I collagen homotrimers induce pro-survival signaling through α3β1 integrin. KPPC; Col1^pdxKO cancer cells were transfected with siRNAs of DDR1 (A,B), integrin β1 (C), or integrin α3 (D). Cells were then incubated with DMEM medium with 1% FBS for 6 hours before the treatment with col1 homotrimers or heterotrimers (50 μg/mL) for 16 hours. Cells were harvested, lysed, and examined for indicated proteins by Western blotting.
as §1, with “signal.” for “signal. (E) Expression profile of integrin α3 (Itga3) among various cell clusters from KPPC tumors, as shown in t-SNE plot using the single cell RNA sequencing analysis. (F) Representative images of integrin α3 IHC staining on KPPC tumor sections. Scale bar: 100 μm. (G) KPPC; Col1^pdxKO cancer cells growing in 6-well plates were cultured with regular medium (DMEM with 10% FBS) to reach 60% confluence.”
(In western blotting, separated proteins are transferred to a membrane and probed.)

On to `CNC(=O)c1ccccc1Nc1cc(Nc2ccc(N3CCOCC3)cc2OC)ncc1C(F)(F)F` [VS-4718], for which the “early PanIN progression (percent area of ADM and PanIN lesions)” value in assay [1] was “inhibited early PanIN progression”. Further, the “inhibition of FAK and PYK2” value in the assay on FAK and PYK2 was “inhibited FAK and PYK2”. Besides, the “col1 homotrimer induced activation of FAK, AKT, and ERK” value in assay [2] is listed as “abrogated”.
